Data: paper PMC2263054, “Functional evolution of the vitamin D and pregnane X receptors” (BMC Evolutionary Biology, 2007)
Structures can show the parent of a compound that is named as a salt. Where two headings read alike, the source gives them in different places.

Columns and labels:
Assay type in all cases: cell-based
[1] = molecular target: T1, Xenopus laevis VDR (Xenopus laevis, UniProt O13124); assay: luciferase reporter transactivation assay in HepG2-NTCP cells, GAL4/xlVDR LBD chimera with tk-UAS-Luc; details: screening for activators, at least three concentrations of each drug
T1 sequence (O13124 90-422): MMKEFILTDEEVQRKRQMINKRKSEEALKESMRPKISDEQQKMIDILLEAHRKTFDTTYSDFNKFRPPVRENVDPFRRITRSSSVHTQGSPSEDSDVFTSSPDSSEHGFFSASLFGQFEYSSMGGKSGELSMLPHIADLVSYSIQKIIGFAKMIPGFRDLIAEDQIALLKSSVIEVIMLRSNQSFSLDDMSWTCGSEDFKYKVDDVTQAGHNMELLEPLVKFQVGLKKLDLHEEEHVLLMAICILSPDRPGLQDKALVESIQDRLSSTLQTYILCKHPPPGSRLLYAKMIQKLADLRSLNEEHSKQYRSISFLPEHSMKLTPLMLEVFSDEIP

[2] = molecular target: T2, Zebrafish VDR (Danio rerio, UniProt Q9PTN2); assay: luciferase reporter transactivation assay in HepG2-NTCP cells, GAL4/zfVDR LBD chimera with tk-UAS-Luc; details: screening for activators, at least three concentrations of each drug
T2 sequence (Q9PTN2 121-453): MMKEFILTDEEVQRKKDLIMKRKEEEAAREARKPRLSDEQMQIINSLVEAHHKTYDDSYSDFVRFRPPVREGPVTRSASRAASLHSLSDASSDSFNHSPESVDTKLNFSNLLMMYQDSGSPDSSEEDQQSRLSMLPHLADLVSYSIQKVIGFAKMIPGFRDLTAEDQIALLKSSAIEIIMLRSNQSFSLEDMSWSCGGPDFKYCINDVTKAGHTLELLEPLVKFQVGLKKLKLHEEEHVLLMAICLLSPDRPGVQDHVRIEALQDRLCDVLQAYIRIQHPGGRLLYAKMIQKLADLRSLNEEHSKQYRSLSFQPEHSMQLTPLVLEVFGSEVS

[3] = molecular target: T3, Sea lamprey VDR (Petromyzon marinus, UniProt Q7ZZY9)
T3 sequence (Q7ZZY9 92-406): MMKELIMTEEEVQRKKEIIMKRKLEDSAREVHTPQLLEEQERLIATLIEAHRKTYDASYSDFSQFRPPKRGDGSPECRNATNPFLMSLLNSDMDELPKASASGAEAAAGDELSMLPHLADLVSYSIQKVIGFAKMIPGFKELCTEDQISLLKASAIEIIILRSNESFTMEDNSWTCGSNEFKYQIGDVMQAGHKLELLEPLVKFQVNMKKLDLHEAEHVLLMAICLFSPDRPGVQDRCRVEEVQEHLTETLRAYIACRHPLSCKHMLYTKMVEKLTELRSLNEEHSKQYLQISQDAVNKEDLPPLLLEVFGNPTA

[4] = screening for activators, at least three concentrations of each drug

Row | Compound | Effect on Xenopus laevis VDR [1] | Effect on zebrafish VDR [2] | Effect on sea lamprey VDR [3, 4] | Effect on sea lamprey VDR [3]
1 | CC(=O)N[C@@H](CSC/C=C(\C)CC/C=C(\C)CCC=C(C)C)C(=O)O [Acetyl-farnesyl-cysteine] | No effect | No effect | No effect | –
2 | CC1=C(/C=C/C(C)=C/C=C/C(C)=C/C=C/C=C(C)/C=C/C=C(C)/C=C/C2=C(C)CCCC2(C)C)C(C)(C)CCC1 [Beta-carotene] | No effect | No effect | No effect | –
3 | CC(C)(O)[C@H]1O[C@H]2CC[C@@]3(C)[C@@](O)(CC[C@H]4Cc5c([nH]c6ccccc56)[C@@]43C)C2=CC1=O [Paxilline] | No effect | No effect | No effect | –
4 | AM-580 | No effect | No effect | No effect | –
5 | CC(=O)O[C@H]1C(=O)[C@@]2(C)[C@H]([C@H](OC(=O)c3ccccc3)[C@]3(O)C[C@H](OC(=O)[C@H](O)[C@@H](NC(=O)c4ccccc4)c4ccccc4)C(C)=C1C3(C)C)[C@]1(OC(C)=O)CO[C@@H]1C[C@@H]2O [Paclitaxel] | No effect | No effect | No effect | –
6 | COc1cc(C)c(/C=C/C(C)=C/C=C/C(C)=C/C(=O)O)c(C)c1C [Aciretin] | No effect | No effect | No effect | –
7 | C[C@H](CCC(=O)NCC(=O)O)[C@H]1CC[C@H]2[C@@H]3[C@H](O)C[C@@H]4C[C@H](O)CC[C@]4(C)[C@H]3C[C@H](O)[C@]12C.O [Glycocholic acid hydrate] | No effect | No effect | No effect | –
8 | C[C@]12CC[C@@H](O)C[C@H]1CC[C@@H]1[C@@H]2C(=O)C[C@@]2(C)[C@H]1CC[C@]2(O)[C@@H](O)CO [Cortolone] | No effect | No effect | No effect | –
9 | CC(O)C1CCC2C3CCC4CC(O)CCC4(C)C3CCC12C (stereo not drawn) [5a-pregnan-3a,20a-diol] | No effect | No effect | No effect | –
10 | CC(=O)OC/C=C(C)/C=C/C=C(C)/C=C/C1=C(C)CCCC1(C)C [Retinyl acetate] | No effect | No effect | No effect | –
11 | CC(=O)[C@H]1[C@H](C#N)C[C@H]2[C@@H]3CC=C4C[C@@H](O)CC[C@]4(C)[C@H]3CC[C@@]21C [Pregnenolone-16a-carbonitrile] | No effect | No effect | No effect | –
12 | C[C@]12CC[C@H](OS(=O)(=O)O)CC1=CC[C@@H]1[C@@H]2CC[C@]2(C)C(=O)CC[C@@H]12 [DHEA sulfate] | No effect | No effect | No effect | –
13 | Cc1c(C)c2c(c(C)c1O)CC[C@@](C)(CCC[C@H](C)CCC[C@H](C)CCCC(C)C)O2 [Alpha-tocopherol] | No effect | No effect | No effect | –
14 | C[C@H](CCC(=O)O)[C@H]1CC[C@H]2[C@@H]3CC[C@@H]4C[C@H](O)CC[C@]4(C)[C@H]3CC(=O)[C@]12C [12-Ketolithocholic acid] | No effect | No effect | No effect | –
15 | C[C@H](CCC(=O)O)[C@H]1CC[C@H]2[C@@H]3[C@H](O)C[C@H]4C[C@H](O)CC[C@]4(C)[C@H]3C[C@H](O)[C@]12C [Allocholic acid] | No effect | No effect | No effect | –
16 | CC(C)(Oc1ccc(CCNC(=O)c2ccc(Cl)cc2)cc1)C(=O)O [Bezafibrate] | No effect | No effect | No effect | –
17 | CCCCCCCC/C=C\CCCCCCCC(=O)NCCO [N-Oleoylethanolamide] | No effect | No effect | No effect | –

Row | Compound | Effect on Xenopus laevis VDR [1] | Effect on zebrafish VDR [2] | Effect on sea lamprey VDR [3, 4] | Effect on sea lamprey VDR [3]
18 | C[C@]12CC[C@H]3[C@@H](C[C@H](F)C4=CC(=O)CC[C@@]43C)[C@@H]1CC[C@@H]2O [6a-Fluorotestosterone] | No effect | No effect | No effect | –
19 | C[C@]12CC[C@@H](O)C[C@@H]1CC[C@@H]1[C@@H]2CC[C@]2(C)C(=O)CC[C@@H]12 [Androsterone] | No effect | No effect | No effect | –
20 | COC(=O)/C=C/c1cccc(N(Cc2ccc(-c3ccc(N(C)C)cc3)cc2)C(=O)C2CCCCC2)c1 [fexaramine] | None of these three VDRs were activated | None of these three VDRs were activated | None of these three VDRs were activated | –
21 | CC(=O)[C@H]1CC[C@H]2[C@@H]3CC[C@@H]4C[C@H](OS(=O)(=O)O)CC[C@]4(C)[C@H]3CC[C@]12C [5b-pregnan-3a-ol-20-one sulfate] | No effect | No effect | No effect | –
22 | C[C@]12CC[C@@H]3c4ccc(O)cc4CC[C@H]3[C@@H]1C[C@@H](O)[C@@H]2O [Estriol] | No effect | No effect | No effect | –
23 | C[C@]12CCC(=O)C=C1CC[C@@H]1[C@@H]2C(=O)C[C@@]2(C)[C@H]1CC[C@]2(O)C(=O)CO [Cortisone] | No effect | No effect | – | No effect
24 | Hyperforin | No effect | No effect | No effect | –
25 | CC(C)=CCC/C(C)=C/CC/C(C)=C/CSCC(=O)O [Farnesylthioacetic acid] | No effect | No effect | No effect | –
26 | CC(C)CCC[C@@H](C)[C@H]1CC[C@H]2[C@@H]3CC[C@@H]4C[C@H](OS(=O)(=O)O)CC[C@]4(C)[C@H]3CC[C@]12C [5b-cholestan-3a-ol sulfate] | No effect | No effect | No effect | –
27 | O=C(O)CCc1cc(I)c(O)c(I)c1 [3,5-Diiodo-4-hydroxyphenylpropionic acid] | No effect | No effect | No effect | –
28 | CC1=C(/C=C/C(C)=C/C=C/C(C)=C/C(=O)Nc2ccc(O)cc2)C(C)(C)CCC1 [4-Hydroxyphenylretinamide] | No effect | No effect | No effect | –
29 | C[C@]12CC[C@@H]3c4cc(O)c(O)cc4CC[C@H]3[C@@H]1CCC2=O [2-Hydroxyestrone] | No effect | No effect | No effect | –
30 | C/C(=C\c1ccc(C(=O)O)cc1)c1ccc2c(c1)C(C)(C)CCC2(C)C [TTNPB] | No effect | No effect | No effect | –
31 | CC(=O)N[C@@H](CSC/C=C(\C)CC/C=C(\C)CC/C=C(\C)CCC=C(C)C)C(=O)O [Acetyl-geranylgeranyl-cysteine] | No effect | No effect | No effect | –
32 | CC(C)(c1ccc(OCC2CO2)cc1)c1ccc(OCC2CO2)cc1 (stereo not drawn) [BADGE] | No effect | No effect | No effect | –
33 | C[C@]12CC[C@@H](O)C[C@@H]1CC[C@@H]1[C@@H]2CC[C@]2(C)[C@@H](O)CC[C@@H]12 [5a-Androstan-3a,17b-diol] | No effect | No effect | No effect | –
34 | C[C@H](CC(=O)O)[C@H]1CC[C@H]2[C@@H]3CC[C@@H]4C[C@H](O)CC[C@]4(C)[C@H]3C[C@H](O)[C@]12C [23-Nordeoxycholic acid] | No effect | No effect | No effect | –
